Laboratory results published in patent US20060134725A1, “Method for the determination of the presence of an antibiotic in a fluid” (priority 2003, published 2006).

Experiments:
Type in all cases: cell-based
[1] = test system: Bacillus stearothermophilus var. calidolactis; assay: Delvotest microbiological test, 0.27 ml test medium, nutrients added as tablet, different volumes of milk; settings: for concentration giving a Z-value of 0 (threshold): 2.6 hours at 64° C., Z=0.35.a+0.65.b, FIG. 1
From the text: (§1) The arrangement can be used for detecting residues of antibiotics in milk. The commercially available Delvotest® and BR®-test are commonly used. Delvotest® comprises an agar matrix, CFU's of an acid forming microorganism, as well as a color indicator. With the arrangement mentioned above it is possible to automatically scan the bottom side of each of the samples in a test plate. The color and the brightness of the reflected light are registered in three variables, each describing one color component, for instance the so-called L*a*b* model. In the L*a*b* model, the color spectrum is divided in a two-dimensional matrix. The position of a color in this matrix is registered by means of the two variables “a” and “b”. The variable L indicates the intensity (for instance, from light blue to dark-blue). It is possible to make a criterion comprising the a-value, b-value and L-value to make a composite function as follows: Z=wL.L+wa.a+wb.b
(§2) where wL, wa and wb are weighting factors for the L-value, a-value and b-value, respectively. […] By combining two or more of the color components in the L*a*b* model in a predetermined manner that depends on the type of residue and the sample, an accurate detection is possible. In practice, a certain value of Z at which a test should switch between positive and negative result (the threshold value) can be experimentally predetermined.
(§3) As outlined in the detailed description, the following equation was used: Z=0.35.a+0.65.b. The explanation of the symbols used in the Figure is as follows.
(§4) A commercially available microbiological test system (Delvotest®) having 0.27 ml of test medium containing agar, CFU's of Bacillus stearothermophilus var. calidolactis, an antifolate, and the indicator Bromocresol Purple was investigated using milk with added penicillin G in concentrations of 0, 2, 3, 4 and 6 ppb. These five milk samples were applied to the test systems in a series of four different volumes, ie. 0.05 ml, 0.10 ml (the Delvotest® recommended volume), 0.20 ml and 0.30 ml. Before addition of the milk, a tablet with nutrients was applied on the test medium. After the milk was added, the tests were incubated for 2.6 hours at 64° C. If there are no or little antibiotics that inhibit the growth of the test organism, after some time, an acid environment is formed by the growing microorganisms and the indicator changes color from blue/purple to yellow. However, if there are sufficient antibiotics to inhibit growth, the color of the indicator remains purple.
Firstly, the colors were measured using the scanning apparatus described in the detailed description using the following formula for the Z-value: Z=0.35.a+0.65.b. […]

[2] = test system: Bacillus stearothermophilus var. calidolactis; assay: Delvotest microbiological test, 0.27 ml test medium, nutrients as tablet, different milk volumes at different incubation times; settings: 4 ppb penicillin G
From the text: as §1, §2, §3, §4
A similar experimental setup as in Example 1 was used. […] (for 2.4 h, normally referred to as the point of indicator change, and 3.0 h, normally referred to as the point of reading). […]

[3] = test system: Bacillus stearothermophilus var. calidolactis; assay: Delvotest microbiological test, 0.15 ml test medium with nutrients present in the test medium, different volumes of milk, visual colour score; settings: 3 hours at 64° C., FIG. 3
Experimental: In this test, the nutrients were present in the test medium. The explanation of the symbols used in the Figure is as follows.
A commercially available microbiolgical test system (Delvotest®) having 0.15 ml of test medium containing agar, CFU's of Bacillus stearothermophilus var. calidolactis, an antifolate, nutrients, and the indicator Bromocresol Purple was investigated using milk with added penicillin G in concentrations of 0, 0.5, 1, 2, 3 and 4 ppb. These six different milk samples were applied to the test systems in a series of five different volumes, i.e. 0.05 ml, 0.10 ml (the Delvotest® recommended volume), 0.15 ml, 0.20 ml and 0.30 ml. After the milk was added, the tests were incubated for 3 hours at a temperature of 64° C. If there are no antibiotics (or only little) that inhibit the growth of the test organism, after a certain amount of time, an acid environment is formed by the growing microorganisms. Then, the color of the indicator changes from blue/purple to yellow.
Intermediate color changes were assigned values of −2, −1, 0, +1 or +2, depending on the degree of coloration. […] If, for example, a visual color of 2 is chosen as the required threshold value, it can be seen from FIG. 3 that, whereas the standard recommended amount of 0.10 ml milk gives a color of 2 at a concentration of 2 ppb penicillin G, whereas for 0.15, 0.20 and 0.30 ml milk this threshold already is reached at 1.7 ppb penicillin G.

Compound: CC1(C)S[C@@H]2[C@H](NC(=O)Cc3ccccc3)C(=O)N2[C@H]1C(=O)O [penicillin G]
- concentration giving a Z-value of 0 (threshold) ([1]; 0.10 ml milk on 0.27 ml test medium): 3 ppb
- concentration giving a Z-value of 0 (threshold) ([1]; 0.20 ml milk on 0.27 ml test medium): 2.3 ppb
- concentration giving a Z-value of 0 (threshold) ([1]; 0.30 ml milk on 0.27 ml test medium): 2.0 ppb
- change of sensitivity of the test towards the antibiotic ([1]; milk, doubling the amount of fluid sample advocated by the producer of the test): increases by a third
- Z-value ([2]; 0.10 ml milk, 2.4 h at 64° C., line ◯ of FIG. 2): 11
- Z-value ([2]; 0.10 ml milk, 3.0 h at 64° C., line ⋄ of FIG. 2): 4
- Z-value ([2]; 0.30 ml milk, 2.4 h at 64° C., line Δ of FIG. 2): 14
- Z-value ([2]; 0.30 ml milk, 3.0 h at 64° C., line □ of FIG. 2): 13
- concentration giving a visual color of 2 (threshold) ([3]; 0.10 ml milk on 0.15 ml test medium): 2 ppb
- concentration giving a visual color of 2 (threshold) ([3]; 0.15 ml milk on 0.15 ml test medium): 1.7 ppb
- concentration giving a visual color of 2 (threshold) ([3]; 0.20 ml milk on 0.15 ml test medium): 1.7 ppb
- concentration giving a visual color of 2 (threshold) ([3]; 0.30 ml milk on 0.15 ml test medium): 1.7 ppb
